The text below walks through data of publication PMC11329928, “Design, synthesis and structure-activity relationship (SAR) studies of an unusual class of non-cationic fatty amine-tripeptide conjugates as novel synthetic antimicrobial agents” (Frontiers in Pharmacology, 2024).

Data set [1] in a line: Calcein release from LUVs. The note with it: 10 μM DICAM, 25°C, vesicle buffer pH 7.4, calcein release. On the procedure:
(§1) LUVs were prepared for calceine liberation assays as described ([Chongsiriwatana and Barron, 2009]). Lipid composition (mole %) of LUVs was: POPG (100), POPG:CL (80:20), POPG:CL:DOPE ([…]), and POPG:CL:GlcDAG (75:5:20). Briefly, the nitrogen-dried lipid mixture was dissolved at 1.25 mM with 100 mM calceine in vesicle buffer (10 mM Tris, 140 mM NaCl, 0.5 mM EDTA, pH 7.4) followed by five thaw-freeze cycles. Calceine-entrapped LUVs were prepared by extrusion through 100 nm polycarbonate membranes (Avanti Polar Lipids). Non-entrapped calceine was separated from LUVs by gel filtration on a Sephacryl® S200-HR column (Sigma). LUVs permeabilization was monitored at 25°C by fluorescence emission at 550 nm (λex = 480 nm) as a function of time in a Fluoromax-4 spectrofluorometer (Horiba, France) using agitation. Signal stabilization of samples (1,500 µL vesicle buffer plus 45 µL LUVs) was recorded for 5 min before 10 µM final DICAM addition, and calcein release was monitored for a maximum of 20 min. After incubation, samples were solubilized in Triton X-100 (0.025%) and the fluorescence signal recorded thereafter was used to normalize the entire data set. Solubilization of DICAM-untreated LUVs in Triton X-100 was used as a positive control. No perturbation was detected in controls containing DMSO.

Data set [2] can be described thus: RP-HPLC retention time used to determine hydrophobicity. It is filed as physicochemical. The note with it: analytical RP-HPLC, C18 Sunfire column (4.6 mm × 150 mm, 3.5 μm); A = 0.05% TFA in water, B = acetonitrile; 10% to 100% B in 20 min then isocratic 100% B 10 min; 217 and 254 nm; used as measure of hydrophobicity. On the procedure: The purity of the lipopeptides was checked by analytical RP-HPLC on an Agilent Infinity instrument equipped with a Diode Array and a C18 Sunfire column (4.6 mm × 150 mm, 3.5 μm). As mobile phase A:B mixtures were used, where A = 0.05% TFA in water and B = acetonitrile. The samples were analyzed at 217 and 254 nm in a gradient from 10% of B to 100% of B in 20 min followed by isocratic 100% of B in 10 min.
Retention times were used to determine the hydrophobicity ([Neubauer et al., 2020]). HRMS (EI+) was carried out in an Agilent 6,520 Accurate-Mass Q-TOF LC/MS spectrometer using water/acetonitrile mixtures. Results can be found in Supplementary Section S3, S4.

Data set [3] deals with Streptococcus pneumoniae R6. The experiment in a line: Growth inhibition / lysis screening of planktonic cultures (OD550/600). The data set is classed as cell-based. Also noted: key: (+++) full inhibition; (++) partial inhibition; (+) growth retardation; -: (−) no effect. The note with it: S. pneumoniae R6, 50 and 100 μM compound added at early logarithmic phase (T1), OD550/600 followed 10 h, 37°C. On the procedure:
(§2) Planktonic cultures of selected pathogens (S. pneumoniae R6, S. pyogenes ^T, Staphylococcus aureus ^T, Escherichia coli DH10B, and Pseudomonas aeruginosa PAO1 strains) on early logarithmic-phase (T1) were assayed for their sensitivity to a broad range of DICAM compounds, as indicated in Table 1. Their bacteriostatic or lytic effect was first tested by measuring the variation of the OD550/600 as a function of time (10 h) when (50/100 μM) DICAMs were added, compared to untreated controls. The screening results, summarized in Table 1, evidenced that a potent antimicrobial activity may exist even when the negative charge of the peptide was higher than in the prototype compounds.
(§3) Susceptibility to DICAMs was first tested by growth-inhibition assays at 50 and 100 μM of compound. Briefly, working solutions at 5 mM or 10 mM DICAM in pure DMSO were prepared from DICAM stocks (40 mM in pure DMSO) and diluted with fresh culture medium to 5× the desired final concentration. Aliquots (50 µL) of these solutions were added to 200 µL of bacterium cultures grown to early exponential phase (OD550/600 c. a. 0.15–0.2 in sterile 96-well plates (Cultek, Spain). Incubation continued for 10 h at 37°C and turbidity (OD550/600) values were measured every 20 min to monitor growth and lysis, using a VersaMax microplate reader (Molecular Devices; United Kingdom). Next, the activity dependence on DICAM’s dose was examined by measuring the turbidity of treated and untreated cultures as a function of time. Also, the decay of bacterial viability (CFU/mL) at selected times of treatment was assessed by colony counting on LB-agar or TSA plates after overnight incubation at 37°C. By default, 10 μL of 10-fold serially diluted samples were plated, which set the lower detection limit at 10^2 CFU/mL (10^1 CFU/mL when 100 μL of the undiluted sample was seeded).

Data set [4] has as its system S. pyogenes T membrane. The experiment in a line: Membrane permeation, SYTOX Green. The data set is classed as cell-based, Streptococcus pyogenes. Particulars: S. pyogenes T in PBS pH 7.2, 37°C. As for the experimental part:
(§4) Permeation and depolarization of S. pyogenes ^T membrane by DICAMs were assayed with the fluorescent probes SYTOX Green and DiSC3(5), respectively, in a Varioskan Flash microplate reader (Thermo Scientific; Spain) using FluoroNunc 96-well plates (Thermo Scientific; Spain). For permeation assays, cells were grown to an OD550 ≈ 0.3, washed once with PBS pH 7.2 (3,800 × g, 7 min, room temperature), and adjusted to a final OD550 ≈ 0.4 (∼10^8 CFU/mL) with the same buffer before mixing in the dark with SYTOX Green (5 µM final concentration). One hundred µL of this suspension was dispensed per plate well and the signal stabilization was monitored for 15 min (λex = 485 nm; λem = 520 nm). Then, 100 µL of two-fold serially diluted lipopeptide samples was added and changes in fluorescence intensity were registered for 60 min at 37°C. SYTOX Green (900 Da) binds to intracellular DNA when the cell membrane is damaged, thereby increasing fluorescence intensity ([Roth et al., 1997]). Positive controls (100% membrane permeabilization) were carried out by adding Titron X-100 (0.01% final concentration) to untreated bacterial samples ([Rathinakumar et al., 2009]). For membrane depolarization assays, 180 µL of an OD550 ≈ 0.2 culture (BHI; ≈ 10^7 CFU/mL) supplemented with DiSC3(5) (1 µM final concentration) was distributed per well, and signal stabilization was registered for 30 min (λex = 622 nm; λem = 670 nm) ([Te Winkel et al., 2016]). Subsequently, 20 µL of a two-fold serial dilution of lipopeptide in culture medium was added, and fluorescence intensity was recorded for 60 min at 37°C. Partition of DiSC3(5) to the surface of polarized cells decreases the probe fluorescence, and its release, caused by membrane depolarization, results in an increase in fluorescence. […] The background signal of controls with bacterial cells without the fluorescent probe, as well as the dye fluorescence in the presence of the tested compounds without bacteria, were also registered. No change in the fluorescence intensity of the probes occurred upon DICAM addition in the absence of bacterial cells.

Data set [5] relates to S. pyogenes T membrane. The experiment in a line: Membrane depolarization, DiSC3(5). Particulars: S. pyogenes T in BHI, 37°C. The data set is classed as cell-based, Streptococcus pyogenes. On the procedure: as §4
For the next data set, the system named is Streptococcus pyogenes T. The experiment in a line: Growth inhibition screening of planktonic cultures (OD550/600). The data set is classed as cell-based. Also noted: key: (+++) full inhibition; (++) partial inhibition; (+) growth retardation; -: (−) no effect. The note with it: S. pyogenes T, 50 and 100 μM compound added at T1, OD550/600 followed 10 h, 37°C. As for the experimental part:
as §2, §3

The next data set relates to Staphylococcus aureus T. The description is as above. Particulars: S. aureus T, 50 and 100 μM compound added at T1, OD550/600 followed 10 h, 37°C. It is filed as cell-based. Further details: key: (+++) full inhibition; (++) partial inhibition; (+) growth retardation; -: (−) no effect. On the procedure:
as §2, §3

In data set [6] the test system is Pseudomonas aeruginosa PAO1. Described as above. It is filed as cell-based. Further details: key: (+++) full inhibition; (++) partial inhibition; (+) growth retardation; -: (−) no effect. The note with it: P. aeruginosa PAO1, 50 and 100 μM compound added at T1, OD550/600 followed 10 h, 37°C. On the procedure:
as §2, §3

The subject of another data set is Escherichia coli DH10B. The data set is described as above. It is filed as cell-based. Further details: key: (+++) full inhibition; (++) partial inhibition; (+) growth retardation; -: (−) no effect. Particulars: E. coli DH10B, 50 and 100 μM compound added at T1, OD550/600 followed 10 h, 37°C. As for the experimental part: as §2, §3
The nature of data set [7]: Calcein release from LUVs, all tested compositions. Particulars: 10 μM DICAM, 25°C, vesicle buffer pH 7.4, calcein release. On the procedure: as §1

Regarding “Asn- Pro -Tyr(Bzl)-NH-C18H37 ·HCl [DICAM 6]”, the “Permeation of DOPE:POPG:CL (80:15:5) LUVs, result in words” value in data set [1] was “particularly effective”. The same substance registered a Retention time in [2] of 22.10 min. For the same substance, the “Growth halt or lysis (50/100 μM), Spn” value in data set [3] is listed as “-”. Also, the “Membrane permeation (SYTOX Green), result in words” value in the data set on S. pyogenes T membrane [4] was “no depolarization or membrane permeation”. In addition, the “Membrane depolarization (DiSC3(5)), result in words” value in the data set on S. pyogenes T membrane [5] is on record as “no depolarization”. Further, the “Growth halt or lysis (50/100 μM), Spy T” value with Streptococcus pyogenes T is “-”. For the same substance, the “Growth halt or lysis (50/100 μM), Sa T” value in the data set with Staphylococcus aureus T was “-”. The “Growth halt or lysis (50/100 μM), Pa” value in data set [6] is given as “-”. In addition, the “Growth halt or lysis (50/100 μM), Ec” value with Escherichia coli DH10B was “-”.
For Asn- Pro -Phe-NH-C18H37 · HCl [DICAM 7], the “Permeation of DOPE:POPG:CL (80:15:5) LUVs, result in words” value in [1] is reported as “particularly effective”. For the same substance, the Retention time in data set [2] was found to be 22.21 min. The “Growth halt or lysis (50/100 μM), Spn” value in [3] is given as “-”. Besides, the “Growth halt or lysis (50/100 μM), Spy T” value with Streptococcus pyogenes T is given as “-”.
Take Asn- Pro -NH-C18H37 · HCl [DICAM 13]: the “Permeation of model membranes (LUVs), result in words” value in data set [7] is given as “able to permeate all tested model membranes”. The substance further returned a Retention time in [2] of 20.18 min. Moreover, the “Growth halt or lysis (50/100 μM), Spn” value in [3] is given as “-”. The “Growth halt or lysis (50/100 μM), Spy T” value in the data set on Streptococcus pyogenes T is listed as “+”. In the data set on Staphylococcus aureus T, the “Growth halt or lysis (50/100 μM), Sa T” value was “-”. The “Growth halt or lysis (50/100 μM), Pa” value in data set [6] is recorded as “-”. Besides, the “Growth halt or lysis (50/100 μM), Ec” value in the data set on Escherichia coli DH10B is given as “-”.
